Test results from patent publication US20240148821A1, “PHARMACEUTICAL USE OF CYCLIC PEPTIDE COMPOUND” (CHUGAI SEIYAKU KABUSHIKI KAISHA, priority 2021, published 2024).
Numbered stars: 1 amine (or outer) side, 2 acyl side, 3 side chain; on linkers, the order of the positions; unused ones are H or OH. Bridge positions count the residues as written; N and C are the ends. Square brackets hold non-standard residues; d marks the D form. Peptide text beside a SMILES is read from it. * marks the point of attachment. hPhe(3,5-F2-4-CF3) = N[C@@H](CCc1cc(F)c(C(F)(F)F)c(F)c1)C(=O)O; hPhe(3-Cl-4-CF3) = N[C@@H](CCc1ccc(C(F)(F)F)c(Cl)c1)C(=O)O; hPhe(3-F,4-CF3) = N[C@@H](CCc1ccc(C(F)(F)F)c(F)c1)C(=O)O; NEtPhe(4-CF3) = CCN[C@@H](Cc1ccc(C(F)(F)F)cc1)C(=O)O; Pro(trans-4-Ph) = O=C(O)[C@@H]1C[C@@H](c2ccccc2)CN1; hPhe(4-CF3) = N[C@@H](CCc1ccc(C(F)(F)F)cc1)C(=O)O; NMePhe(4-Cl) = CN[C@@H](Cc1ccc(Cl)cc1)C(=O)O; NMePhe(4-Me) = CN[C@@H](Cc1ccc(C)cc1)C(=O)O; NMeNle(6-CHF2) = CN[C@@H](CCCCC(F)F)C(=O)O; NMedβ3hAla = C[C@H](CC(=O)[*:2])N(C)[*:1]; NMeAla(cPent) = CN[C@@H](CC1CCCC1)C(=O)O; NMeGly(cPent) = CN[C@H](C(=O)O)C1CCCC1; Phe(3-I) = N[C@@H](Cc1cccc(I)c1)C(=O)O; Pro(4,4-F2) = O=C(O)[C@@H]1CC(F)(F)CN1; Ala(cPent) = N[C@@H](CC1CCCC1)C(=O)O; NMeCha = CN[C@@H](CC1CCCCC1)C(=O)O; Hyp = O=C(O)[C@@H]1C[C@@H](O)CN1; NMeChg = CN[C@H](C(=O)O)C1CCCCC1; NMeF = CN[C@@H](Cc1ccccc1)C(=O)O; NMeI = CC[C@H](C)[C@H](NC)C(=O)O; NMeD = CN[C@@H](CC(=O)O)C(=O)O; CH2CONHtBu = CC(C)(C)NC(=O)C*; NMeL = CN[C@@H](CC(C)C)C(=O)O; NMeV = CN[C@H](C(=O)O)C(C)C; d(β3hA) = C[C@@H](N)CC(=O)O; NMeS = CN[C@@H](CO)C(=O)O; NMeA = CN[C@@H](C)C(=O)O; Piperidide = C1CCN(*)CC1; Pyrrolidide = C1CCN(*)C1; Ac5c = NC1(C(=O)O)CCCC1; Aze = O=C(O)[C@@H]1CCN1; Ac4c = NC1(C(=O)O)CCC1; Sar = CNCC(=O)O

The compounds below were run against protein-protein interaction between Kras and SOS1 (biotin-tagged human Kras loaded with GDP, His-tagged human SOS1) (Homo sapiens (Human), UniProt P01116, G12D) (assay: Protein-protein interaction inhibition between Kras and SOS1 (KrasG12D-SOS PPI) using AlphaScreen). Conditions: AlphaScreen; biotin-tagged human Kras loaded with GDP, His-tagged human SOS1; read-out: KRAS G12D-SOS PPI IC50.
Assay type: biochemical
`CC[C@H](C)[C@@H]1NC(=O)[C@H](CC(C)C)N(C)C(=O)C[C@@H](C(=O)N2CCCC2)N(C)C(=O)[C@H]([C@@H](C)CC)N(C)C(=O)C2(CCCC2)NC(=O)[C@@H]2CCCN2C(=O)[C@H](CCc2ccc(C(F)(F)F)c(F)c2)NC(=O)CN(C)C(=O)[C@H](Cc2ccc(C)cc2)N(C)C(=O)[C@@H]2CCN2C(=O)[C@H](C)N(C)C1=O` [Compound 44] ([NMeL]I[NMeA][Aze][NMePhe(4-Me)][Sar][hPhe(3-F,4-CF3)]P[Ac5c][NMeI][NMeD]-Pyrrolidide; lactam N-11) was tested, and the IC50 was 1.1 nM. `CC[C@H](C)[C@@H]1NC(=O)[C@H](CC(C)C)N(C)C(=O)C[C@@H](C)N(C)C(=O)[C@H](C2CCCC2)N(C)C(=O)C2(CCCC2)NC(=O)[C@@H]2CCCN2C(=O)[C@H](CCc2ccc(C(F)(F)F)c(F)c2)NC(=O)CN(C)C(=O)[C@H](CC2CCCCC2)N(C)C(=O)[C@@H]2CCN2C(=O)[C@H](C)N(C)C1=O` [Compound 49] (cyclo([Ac5c][NMeGly(cPent)][NMedβ3hAla][NMeL]I[NMeA][Aze][NMeCha][Sar][hPhe(3-F,4-CF3)]P)) gave an IC50 of 12 nM. `CC[C@H](C)[C@@H]1NC(=O)[C@H](C)N(C)C(=O)C[C@@H](C)NC(=O)[C@H](C(C)C)N(C)C(=O)[C@H](Cc2ccccc2)N(C)C(=O)[C@H](CC(C)C)N(C)C(=O)[C@H](CCc2ccc(C(F)(F)F)cc2)NC(=O)CN(C)C(=O)[C@H](Cc2ccc(Cl)cc2)N(C)C(=O)CN(C)C(=O)CN(C)C1=O` [Compound 51] (cyclo(I[Sar][Sar][NMePhe(4-Cl)][Sar][hPhe(4-CF3)][NMeL][NMeF][NMeV][d(β3hA)][NMeA])) gave an IC50 of 90 nM. `CC[C@H](C)[C@@H]1NC(=O)[C@H](C2CCCCC2)N(C)C(=O)C[C@@H](C(=O)N2CCCCC2)N(C)C(=O)[C@H](C(C)C)N(C)C(=O)C2(CCCC2)NC(=O)[C@@H]2CCCN2C(=O)[C@H](CCc2ccc(C(F)(F)F)c(Cl)c2)NC(=O)CN(C)C(=O)[C@H](CC2CCCCC2)N(C)C(=O)[C@@H]2CCN2C(=O)[C@H](C)N(C)C1=O` [Compound 58] ([NMeChg]I[NMeA][Aze][NMeCha][Sar][hPhe(3-Cl-4-CF3)]P[Ac5c][NMeV][NMeD]-Piperidide; lactam N-11) showed an IC50 of 28 nM. Work on `CC[C@H](C)[C@@H]1NC(=O)[C@H](C)N(C)C(=O)C[C@@H](C)NC(=O)[C@H](CC(C)C)N(C)C(=O)[C@H](Cc2ccccc2)N(C)C(=O)[C@H](CC(C)C)NC(=O)[C@H](Cc2cccc(I)c2)NC(=O)CN(C)C(=O)[C@H](Cc2ccc(Cl)cc2)N(C)C(=O)CN(C)C(=O)CN(C)C1=O` [Compound 65] (cyclo(I[Sar][Sar][NMePhe(4-Cl)][Sar][Phe(3-I)]L[NMeF][NMeL][d(β3hA)][NMeA])) yielded an IC50 of 240 nM. With `CC[C@H](C)[C@@H]1NC(=O)[C@H](CC(C)C)N(C)C(=O)C[C@@H](C)NC(=O)[C@H](C(C)C)N(C)C(=O)C2(CCCC2)NC(=O)[C@@H]2CCCN2C(=O)[C@H](CCc2ccc(C(F)(F)F)c(Cl)c2)NC(=O)CN(C)C(=O)[C@H](CC2CCCCC2)N(C)C(=O)[C@@H]2CCN2C(=O)[C@H](COCC(=O)NC(C)(C)C)N(C)C1=O` [Compound 70] (cyclo([Ac5c][NMeV][d(β3hA)][NMeL]I[NMeS](CH2CONHtBu)[Aze][NMeCha][Sar][hPhe(3-Cl-4-CF3)]P)) the IC50 was 160 nM. Compound `CCO[C@@H]1C[C@H]2C(=O)NC3(CCCC3)C(=O)N(C)[C@@H](C3CCCC3)C(=O)N(C)[C@H](C)CC(=O)N(C)[C@@H](CC(C)C)C(=O)N[C@@H]([C@@H](C)CC)C(=O)N(C)CC(=O)N(C)CC(=O)N(C)[C@@H](CC3CCCCC3)C(=O)N(C)CC(=O)N[C@@H](CCc3cc(F)c(C(F)(F)F)c(F)c3)C(=O)N2C1` [Compound 74] (cyclo([Ac5c][NMeGly(cPent)][NMedβ3hAla][NMeL]I[Sar][Sar][NMeCha][Sar][hPhe(3,5-F2-4-CF3)][Hyp](Et))) has an IC50 of 7.2 nM. `CC[C@H](C)[C@@H]1NC(=O)[C@H](CC(C)C)N(C)C(=O)C[C@@H](C(=O)N2CCCCC2)N(C)C(=O)[C@H](C(C)C)N(C)C(=O)C2(CCCC2)NC(=O)[C@@H]2CCCN2C(=O)[C@H](CCc2ccc(C(F)(F)F)c(Cl)c2)NC(=O)CN(C)C(=O)[C@H](CCCCC(F)F)N(C)C(=O)[C@@H]2CCN2C(=O)[C@H](C)N(C)C1=O` [Compound 78] ([NMeL]I[NMeA][Aze][NMeNle(6-CHF2)][Sar][hPhe(3-Cl-4-CF3)]P[Ac5c][NMeV][NMeD]-Piperidide; lactam N-11) was tested, and the IC50 was 1.6 nM. `CC[C@H](C)[C@@H]1NC(=O)[C@H](CC(C)C)N(C)C(=O)C[C@@H](C)N(C)C(=O)[C@H]([C@@H](C)CC)N(C)C(=O)C2(CCCC2)NC(=O)[C@@H]2CCCN2C(=O)[C@H](CCc2ccc(C(F)(F)F)c(Cl)c2)NC(=O)CN(C)C(=O)[C@H](C2CCCC2)N(C)C(=O)[C@@H]2CCN2C(=O)[C@H](C)N(C)C1=O` [Compound 79] (cyclo([Ac5c][NMeI][NMedβ3hAla][NMeL]I[NMeA][Aze][NMeGly(cPent)][Sar][hPhe(3-Cl-4-CF3)]P)) gave an IC50 of 9.3 nM. Work on `CC(C)C[C@H]1C(=O)N[C@@H](CC2CCCC2)C(=O)N(C)[C@@H](C)C(=O)N2CC[C@H]2C(=O)N(C)[C@@H](CC2CCCCC2)C(=O)N(C)CC(=O)N[C@@H](CCc2ccc(C(F)(F)F)c(Cl)c2)C(=O)N2CCC[C@H]2C(=O)NC2(CCCC2)C(=O)N(C)[C@@H](C(C)C)C(=O)N(C)[C@H](C(=O)N2CCCCC2)CC(=O)N1C` [Compound 84] ([NMeL][Ala(cPent)][NMeA][Aze][NMeCha][Sar][hPhe(3-Cl-4-CF3)]P[Ac5c][NMeV][NMeD]-Piperidide; lactam N-11) yielded an IC50 of 73 nM. In the case of `CC[C@H](C)[C@@H]1NC(=O)[C@H](CC(C)C)N(C)C(=O)C[C@@H](C)N(C)C(=O)[C@H]([C@@H](C)CC)N(C)C(=O)C2(CCC2)NC(=O)[C@@H]2CC(F)(F)CN2C(=O)[C@H](CCc2cc(F)c(C(F)(F)F)c(F)c2)NC(=O)CN(C)C(=O)[C@H](Cc2ccc(C(F)(F)F)cc2)N(CC)C(=O)[C@@H]2CCN2C(=O)[C@H](C)N(C)C1=O` [Compound 85] (cyclo([Ac4c][NMeI][NMedβ3hAla][NMeL]I[NMeA][Aze][NEtPhe(4-CF3)][Sar][hPhe(3,5-F2-4-CF3)][Pro(4,4-F2)])), the IC50 is reported as 15 nM. Compound `CC[C@H](C)[C@@H]1NC(=O)[C@H](CC(C)C)N(C)C(=O)C[C@@H](C)N(C)C(=O)[C@H](C(C)C)N(C)C(=O)C2(CCCC2)NC(=O)[C@@H]2CCCN2C(=O)[C@H](CCc2ccc(C(F)(F)F)c(Cl)c2)NC(=O)CN(C)C(=O)[C@H](CC2CCCC2)N(C)C(=O)CN(C)C(=O)CN(C)C1=O` [Compound 88] (cyclo([Ac5c][NMeV][NMedβ3hAla][NMeL]I[Sar][Sar][NMeAla(cPent)][Sar][hPhe(3-Cl-4-CF3)]P)) has an IC50 of 18 nM. `CC[C@H](C)[C@@H]1NC(=O)[C@H](CC(C)C)N(C)C(=O)C[C@@H](C(=O)N2CCCCC2)N(C)C(=O)[C@H](C2CCCCC2)N(C)C(=O)C2(CCCC2)NC(=O)[C@@H]2C[C@@H](c3ccccc3)CN2C(=O)[C@H](CCc2ccc(C(F)(F)F)c(Cl)c2)NC(=O)CN(C)C(=O)[C@H](CC2CCCCC2)N(C)C(=O)CN(C)C(=O)CN(C)C1=O` [Compound 90] ([NMeL]I[Sar][Sar][NMeCha][Sar][hPhe(3-Cl-4-CF3)][Pro(trans-4-Ph)][Ac5c][NMeChg][NMeD]-Piperidide; lactam N-11) showed an IC50 of 5 nM.
